According to publication PMC13128453, “Complexoform-restricted covalent TRMT112 ligands that allosterically agonize METTL5” (Nature Chemical Biology, 2025):
Values belong to the molecule of their own block, whether it stands above or below them.

Legend:
TRMT112 [1] = target: T1, TRMT112 (Homo sapiens, UniProt Q9NRN9+Q9UI30); assay: intact MS kobs/[I] on purified complex; competitive gel-ABPP in HCT116 cells (IC50); type: cell-based; design: TRMT112-FLAG:HA-METTL5 in HCT116 cells (IC50); purified TRMT112:His-METTL5 (intact MS); with METTL5
REEP5 = target: T2, REEP5 (Homo sapiens, UniProt Q00765); assay: cysteine-directed and competitive protein-directed ABPP in cells; type: cell-based; settings: read-out: Competition (%)
T2 construct: endogenous protein in Ramos cells

UVRAG = target: T3, UVRAG (Homo sapiens, UniProt Q9P2Y5); assay: as above; type: cell-based; settings: read-out: Competition (%)
T3 construct: endogenous protein in Ramos cells
T3 sequence (Q9P2Y5 1-699): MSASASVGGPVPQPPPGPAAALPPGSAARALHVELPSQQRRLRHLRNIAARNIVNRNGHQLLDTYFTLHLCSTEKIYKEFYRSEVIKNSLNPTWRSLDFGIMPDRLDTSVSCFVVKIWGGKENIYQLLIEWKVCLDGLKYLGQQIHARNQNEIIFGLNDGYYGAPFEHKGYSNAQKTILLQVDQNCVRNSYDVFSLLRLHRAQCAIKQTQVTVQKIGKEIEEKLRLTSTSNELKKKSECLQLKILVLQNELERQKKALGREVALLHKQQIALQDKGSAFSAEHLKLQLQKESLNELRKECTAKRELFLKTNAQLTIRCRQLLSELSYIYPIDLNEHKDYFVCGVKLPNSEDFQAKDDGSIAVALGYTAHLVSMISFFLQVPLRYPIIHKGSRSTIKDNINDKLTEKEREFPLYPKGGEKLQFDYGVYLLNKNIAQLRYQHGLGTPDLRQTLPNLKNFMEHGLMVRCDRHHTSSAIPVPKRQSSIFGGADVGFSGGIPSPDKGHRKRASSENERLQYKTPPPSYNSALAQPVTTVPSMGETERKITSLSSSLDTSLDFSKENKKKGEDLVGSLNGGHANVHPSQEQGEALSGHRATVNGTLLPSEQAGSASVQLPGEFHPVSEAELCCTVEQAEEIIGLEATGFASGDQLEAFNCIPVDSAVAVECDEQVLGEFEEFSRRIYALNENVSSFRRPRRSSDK

RNF14 [2] = target: T4, RNF14 (Homo sapiens, UniProt Q9UBS8); assay: cysteine-directed ABPP (Glu-C) and competitive protein-directed ABPP in cells; type: cell-based; design: endogenous RNF14 in Ramos cells; recombinant RNF14-FLAG in HEK293T cells; settings: read-out: Competition (%)
T4 sequence (Q9UBS8 1-474): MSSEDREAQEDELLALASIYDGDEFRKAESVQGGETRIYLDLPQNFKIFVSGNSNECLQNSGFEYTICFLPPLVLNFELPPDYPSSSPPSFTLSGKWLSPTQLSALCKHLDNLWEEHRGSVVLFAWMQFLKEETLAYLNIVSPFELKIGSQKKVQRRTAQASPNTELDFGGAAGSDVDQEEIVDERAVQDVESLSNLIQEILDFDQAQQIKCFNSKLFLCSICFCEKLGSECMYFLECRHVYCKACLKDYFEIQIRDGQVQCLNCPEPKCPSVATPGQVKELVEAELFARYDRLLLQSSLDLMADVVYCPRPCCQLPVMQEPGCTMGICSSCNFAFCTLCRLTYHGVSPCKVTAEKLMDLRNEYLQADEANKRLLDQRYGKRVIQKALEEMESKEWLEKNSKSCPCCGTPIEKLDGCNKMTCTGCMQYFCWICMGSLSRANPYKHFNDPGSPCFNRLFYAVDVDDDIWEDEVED

TRMT112 [3] = target: T1, TRMT112; assay: intact MS kobs/[I] on purified complex; gel-ABPP and protein-directed ABPP in cells; type: binding; design: purified WT-TRMT112:His-METTL5 (intact MS); TRMT112-FLAG in HCT116 cells coexpressing HA-METTL5; with METTL5
RNF14 [4] = target: T4, RNF14; assay: gel-ABPP and protein-directed ABPP in cells; type: cell-based; design: RNF14-FLAG expressed in HEK293T cells
TRMT112 [5] = target: T1, TRMT112; assay: […] A cocrystal structure; intact MS (kobs/[I][…] s-1); competitive gel-ABPP on purified complex; type: binding; design: full-length, tag-free TRMT112:METTL5 complex (crystal); TRMT112:His-METTL5 (IC50); with METTL5
[6] = target: T5, METTL5 (tag-free, of the tag-free TRMT112:METTL5 complex) (human, UniProt Q9NRN9 1-209); assay: crystal structure; tag-free TRMT112:METTL5 complex modified with FWG-33B in the presence of SAM; crystals in 21% PEG3350, 0.36 M ammonium sulfate, 0.1 M Bis–Tris pH 5.5, 4 °C; 1.3 Å; settings: both partners purified
T5 construct: METTL5, human, full-length gene codon-optimized for E. coli; same construct as His–METTL5, the His tag removed with TEV protease; By the printed primer a Ser would remain before the first Met after TEV cleavage; also called WT-METTL5; source: E. coli BL21 (DE3), coexpressed with TRMT112, purified (Ni-NTA, TEV cleavage, Ni-NTA, anion exchange, SEC); not shown: His tag, N-terminal, cleaved
T5 sequence (Q9NRN9 whole entry, one chain of several): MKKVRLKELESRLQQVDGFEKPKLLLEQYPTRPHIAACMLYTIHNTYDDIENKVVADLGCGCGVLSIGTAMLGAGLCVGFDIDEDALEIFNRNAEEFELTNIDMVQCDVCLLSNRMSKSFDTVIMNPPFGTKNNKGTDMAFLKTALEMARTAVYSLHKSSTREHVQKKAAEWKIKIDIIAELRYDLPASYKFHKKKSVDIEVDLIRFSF

T1 sequence (Q9NRN9 whole entry, one chain of several): as above
T2 sequence (Q00765 whole entry): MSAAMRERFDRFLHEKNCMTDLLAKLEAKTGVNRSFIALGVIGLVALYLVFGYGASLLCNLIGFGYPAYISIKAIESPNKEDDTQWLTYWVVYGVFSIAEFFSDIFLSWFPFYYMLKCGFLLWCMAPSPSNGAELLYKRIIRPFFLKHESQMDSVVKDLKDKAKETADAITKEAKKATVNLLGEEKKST

- IC50 (TRMT112 [1]): 12 µM
- inhibition at 50 µM (REEP5): > 60%
Molecule: C=CC(=O)N1C[C@@H]2[C@H](C1)[C@@H](c1cccc(OC)c1)C[C@H]2Oc1ccc(NC(C)=O)cc1 [compound 10, FWG-1B]

- inhibition at 50 µM (UVRAG): > 80%
Molecule: C=CC(=O)N1C[C@@H]2[C@H](C1)[C@H](Oc1ccc(NC(C)=O)cc1)C[C@H]2c1cccc(OC)c1 [compound 11, FWG-2A]

- inhibition at 50 µM (RNF14 [2]): > 80%
Molecule: C=CC(=O)N1C[C@@H]2[C@H](C1)[C@@H](c1cccc(OC)c1)C[C@@H]2Oc1ccc(NC(C)=O)cc1 [compound 12, FWG-2B]

Molecule: C#CCCC(=O)Nc1ccc(O[C@@H]2C[C@H](c3cccc(OC)c3)[C@H]3CN(C(=O)C=C)C[C@H]32)cc1 [compound 14, FWG-3B]
- intact MS kobs/[I] on purified complex; gel-ABPP and protein-directed ABPP in ce (TRMT112 [3]): FWG-3B showed enhanced reactivity with TRMT112 exclusively in cells coexpressing the RNA MT METTL5

Molecule: C#CCCC(=O)Nc1ccc(O[C@H]2C[C@H](c3cccc(OC)c3)[C@H]3CN(C(=O)C=C)C[C@H]32)cc1 [compound 16, FWG-4B]
- gel-ABPP and protein-directed ABPP in cells (RNF14 [4]): engagement of recombinant WT-RNF14-FLAG and C68A-RNF14-FLAG, but not C212A-RNF14-FLAG by FWG-4B

- IC50 (TRMT112 [5]): 0.47 µM
Molecule: C=CC(=O)N1C[C@@H]2[C@H](C1)[C@@H](c1cccc(Cl)c1)C[C@H]2Oc1ccc(NC(C)=O)cc1 [compound 22, FWG-33B]

- binding result [6]: binds
B1: TRMT112 modified by FWG-33B at C100 (of the FWG-33B-liganded tag-free TRMT112:METTL5 complex) (natural protein, human, UniProt Q9UI30 1-125, looked up)
chain: MKLLTHNLLSSHVRGVGSRGFPLRLQATEVRICPVEFNPNFVARMIPKVEWSAFLEAADNLRLIQVPKGPVEGYEENEEFLRTMHHLLLEVEVIEGTLQCPESGRMFPISRGIPNMLLSEEETES
modifications: covalent adduct between the acrylamide of FWG-33B and C100
notes: TRMT112, human, full-length gene codon-optimized for E. coli, in pACYCDuet-1; also called FWG-33B-modified TRMT112; source: E. coli BL21 (DE3), coexpressed with METTL5, purified as tag-free complex, then treated with 100 μM FWG-33B
